Experiments:
panel of 442 kinases [1] = molecular target: T1, panel of 442 kinases (Homo sapiens, UniProt P10721, V559D); assay type: binding; details: Compound Concentration 10 µM
T1 construct: purchased KINOMEscan
Source text: (§1) We assessed the selectivity of members of this scaffold using the KINOMEscan methodology across a near comprehensive panel of 442 kinases [[18,27]].

panel of 442 kinases [2] = molecular target: T2, panel of 442 kinases (Homo sapiens, UniProt Q9Y2H9); assay type: binding; details: Compound Concentration 10 µM
T2 construct: purchased KINOMEscan
T2 sequence (Q9Y2H9 whole entry): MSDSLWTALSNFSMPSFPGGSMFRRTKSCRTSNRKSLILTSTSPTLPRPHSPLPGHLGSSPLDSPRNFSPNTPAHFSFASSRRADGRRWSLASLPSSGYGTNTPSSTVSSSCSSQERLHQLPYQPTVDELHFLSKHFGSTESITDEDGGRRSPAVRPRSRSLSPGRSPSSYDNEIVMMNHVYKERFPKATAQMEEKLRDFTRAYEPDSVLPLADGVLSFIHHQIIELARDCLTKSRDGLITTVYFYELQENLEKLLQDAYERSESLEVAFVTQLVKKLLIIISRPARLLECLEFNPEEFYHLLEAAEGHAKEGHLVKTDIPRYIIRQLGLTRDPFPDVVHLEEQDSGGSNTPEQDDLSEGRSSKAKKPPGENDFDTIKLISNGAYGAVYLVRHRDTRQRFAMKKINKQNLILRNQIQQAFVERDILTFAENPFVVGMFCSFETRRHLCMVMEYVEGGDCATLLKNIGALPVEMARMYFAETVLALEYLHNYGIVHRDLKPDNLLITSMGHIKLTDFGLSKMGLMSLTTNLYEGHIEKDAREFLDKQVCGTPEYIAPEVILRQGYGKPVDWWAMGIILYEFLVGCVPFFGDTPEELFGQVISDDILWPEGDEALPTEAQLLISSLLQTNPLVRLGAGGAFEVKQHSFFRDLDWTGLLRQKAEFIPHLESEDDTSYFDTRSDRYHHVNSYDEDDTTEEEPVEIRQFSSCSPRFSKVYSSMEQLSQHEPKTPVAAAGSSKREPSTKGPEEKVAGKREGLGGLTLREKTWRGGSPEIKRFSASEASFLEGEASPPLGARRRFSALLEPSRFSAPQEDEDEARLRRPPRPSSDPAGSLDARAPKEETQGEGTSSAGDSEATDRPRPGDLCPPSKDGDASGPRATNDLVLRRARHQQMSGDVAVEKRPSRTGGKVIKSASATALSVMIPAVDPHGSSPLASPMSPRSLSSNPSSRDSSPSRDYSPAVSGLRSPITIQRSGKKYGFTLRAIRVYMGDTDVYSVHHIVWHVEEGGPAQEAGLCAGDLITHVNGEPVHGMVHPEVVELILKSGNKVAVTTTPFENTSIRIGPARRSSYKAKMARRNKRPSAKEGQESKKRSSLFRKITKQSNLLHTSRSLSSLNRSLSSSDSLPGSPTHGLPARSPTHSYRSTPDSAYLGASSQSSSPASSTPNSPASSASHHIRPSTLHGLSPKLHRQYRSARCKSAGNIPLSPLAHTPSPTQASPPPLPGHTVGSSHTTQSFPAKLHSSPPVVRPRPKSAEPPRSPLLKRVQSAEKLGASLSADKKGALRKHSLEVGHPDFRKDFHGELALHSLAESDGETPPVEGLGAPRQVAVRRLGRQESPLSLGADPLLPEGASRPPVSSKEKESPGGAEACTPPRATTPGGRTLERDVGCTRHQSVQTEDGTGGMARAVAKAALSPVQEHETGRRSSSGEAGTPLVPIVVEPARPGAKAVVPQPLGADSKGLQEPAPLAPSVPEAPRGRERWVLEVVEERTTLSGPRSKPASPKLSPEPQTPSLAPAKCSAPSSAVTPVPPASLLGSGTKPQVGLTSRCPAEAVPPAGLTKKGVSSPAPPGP
Source text: as §1

T1 sequence (P10721 26-976 V559D): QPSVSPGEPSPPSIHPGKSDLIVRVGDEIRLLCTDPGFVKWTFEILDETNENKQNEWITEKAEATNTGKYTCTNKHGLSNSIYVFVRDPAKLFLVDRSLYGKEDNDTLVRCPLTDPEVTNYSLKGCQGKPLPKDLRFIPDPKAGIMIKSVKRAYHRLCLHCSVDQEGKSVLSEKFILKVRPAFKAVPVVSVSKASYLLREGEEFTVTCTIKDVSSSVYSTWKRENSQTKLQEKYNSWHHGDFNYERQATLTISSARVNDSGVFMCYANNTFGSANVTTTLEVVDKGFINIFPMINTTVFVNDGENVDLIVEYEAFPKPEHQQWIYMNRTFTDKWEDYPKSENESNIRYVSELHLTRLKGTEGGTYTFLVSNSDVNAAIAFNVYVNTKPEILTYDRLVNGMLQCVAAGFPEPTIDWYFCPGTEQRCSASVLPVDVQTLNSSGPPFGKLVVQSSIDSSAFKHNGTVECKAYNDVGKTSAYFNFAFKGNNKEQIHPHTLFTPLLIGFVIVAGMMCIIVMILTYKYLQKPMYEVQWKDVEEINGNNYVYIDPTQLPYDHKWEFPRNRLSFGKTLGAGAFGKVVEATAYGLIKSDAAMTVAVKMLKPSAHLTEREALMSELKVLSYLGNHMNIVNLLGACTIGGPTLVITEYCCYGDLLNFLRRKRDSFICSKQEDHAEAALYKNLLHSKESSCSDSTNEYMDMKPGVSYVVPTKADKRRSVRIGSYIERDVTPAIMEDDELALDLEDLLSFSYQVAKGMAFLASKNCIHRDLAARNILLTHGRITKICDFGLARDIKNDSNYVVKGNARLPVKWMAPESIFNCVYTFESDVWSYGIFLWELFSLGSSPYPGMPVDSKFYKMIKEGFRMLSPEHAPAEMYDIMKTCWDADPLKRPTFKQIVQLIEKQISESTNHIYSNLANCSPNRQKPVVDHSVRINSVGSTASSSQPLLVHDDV

SMILES	KINOMEscan: KIT(V559D) (panel of 442 kinases [1])	KINOMEscan: MAST1 (panel of 442 kinases [2])
CCOc1cc(C(=O)N2CCC(N3CCN(C)CC3)CC2)ccc1Nc1ncc2c(n1)N(C1CCCC1)c1ccccc1C(=O)N2C [Compound 26]	100	100
COc1cc(C(=O)N2CCC(N3CCN(C)CC3)CC2)ccc1Nc1ncc2c(n1)N1CCc3cccc(c31)C(=O)N2C [Compound 24]	–	73
COc1cc(C(=O)N2CCC(N3CCN(C)CC3)CC2)ccc1Nc1ncc2c(n1)N(C)c1ccccc1C(=O)N2C [15 (LRRK2-IN-1)]	100	100
COc1cc(C(=O)N2CCC(N3CCN(C)CC3)CC2)ccc1Nc1ncc2c(n1)N(C1CCCC1)c1ccccc1C(=O)N2C [Compound 25, 11-cyclopentyl-2-((2-methoxy-4-(4-(4-methylpiperazin-1-yl)piperidine-1-carbonyl)phenyl)amino)-5-methyl-5H-benzo[e]pyrimido[5,4-b][1,4]diazepin-6(11H)-one]	96	78

From paper PMC3914206
